The values below come from patent publication US12503436B2, “Compounds and compositions for treating conditions associated with STING activity” (NOVARTIS PHARMA AG, priority 2021, dated 2025).

STING, sequence (Q86WV6 whole entry R71H/G230A/H232R/R293Q): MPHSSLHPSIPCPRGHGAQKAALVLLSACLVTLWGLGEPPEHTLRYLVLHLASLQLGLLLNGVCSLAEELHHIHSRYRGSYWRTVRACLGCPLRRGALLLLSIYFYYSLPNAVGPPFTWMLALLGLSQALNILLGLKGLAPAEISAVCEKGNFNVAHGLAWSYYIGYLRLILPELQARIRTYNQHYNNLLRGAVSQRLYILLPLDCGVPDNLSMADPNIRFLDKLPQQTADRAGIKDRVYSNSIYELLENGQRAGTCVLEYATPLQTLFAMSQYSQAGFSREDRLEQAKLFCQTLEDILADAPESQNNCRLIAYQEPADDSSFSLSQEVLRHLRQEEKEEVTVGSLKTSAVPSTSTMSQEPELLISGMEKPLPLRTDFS

The experiment has as its target STING (Homo sapiens, UniProt Q86WV6, G230A/H232R/R293Q/R71H). Briefly: STING reporter assay in THP1-Dual KO-IFNAR2 cells (2′3′cGAMP stimulation, luciferase reporter). The experiment is classed as cell-based. The settings on record: 15 μM 2′3′cGAMP stimulation, 24 h, read-out: Pharmaron, THP1_IFNAR2 STING 24 h Luci Normalized: GeoMean EC50. The method in brief:
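THP1-Dual KO-IFNAR2 cells (2×10E6 cells/mL) with compounds at 0.0017-100 μM final, stimulated with 15 μM final 2′3′cGAMP delivered by Lipofectamine 2000; 24 h at 37 °C. Luciferase in supernatant read with QUANTI-Luc Plus; EC50 derived from luminescence.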
In the case of `CC(=O)Nc1c[nH]c2c(F)cc(OCCC3CCN(CC(F)(F)F)CC3)cc12` [Compound 277, N-(7-fluoro-5-(2-(1-(2,2,2-trifluoroethyl)piperidin-4-yl)ethoxy)-1H-indol-3-yl)acetamide], the EC50 is 5000 to 100000 nM.

As for `CC(=O)Nc1c[nH]c2ccc(OCCC3(O)CCC(F)(F)CC3)cc12` [Compound 278, N-(5-(2-(4,4-difluoro-1-hydroxycyclohexyl)ethoxy)-1H-indol-3-yl)acetamide], the EC50 lay within 5000 to 100000 nM.

As for `CC(=O)Nc1c[nH]c2c(C)cc(OCCC3CCN(CC(F)(F)F)CC3)cc12` [Compound 281, N-(7-methyl-5-(2-(1-(2,2,2-trifluoroethyl)piperidin-4-yl)ethoxy)-1H-indol-3-yl)acetamide], the EC50 lay within 5000 to 100000 nM.

Take `CC(=O)Nc1c[nH]c2ccc(C(O)CCc3ccc(C(F)(F)F)cc3)cc12` (stereo not drawn) [Compound 282, N-(5-(1-hydroxy-3-(4-(trifluoromethyl)phenyl)propyl)-1H-indol-3-yl)acetamide]: the EC50 is 1000 to 5000 nM.

Consider `CC(=O)Nc1c[nH]c2ccc(OCC[C@@H]3C[C@@H]4CN(CC(F)(F)F)C[C@@H]4C3)cc12` [Compound 283, N-(5-(2-((3aR,5r,6aS)-2-(2,2,2-trifluoroethyl)octahydrocyclopenta[c]pyrrol-5-yl)ethoxy)-1H-indol-3-yl)acetamide], for which the EC50 fell in the range of 200 to 1000 nM.

Regarding `CC(=O)Nc1c[nH]c2ccc(CC(O)Cc3ccc(C(F)(F)F)cc3)cc12` (stereo not drawn) [Compound 284, N-(5-(2-hydroxy-3-(4-(trifluoromethyl)phenyl)propyl)-1H-indol-3-yl)acetamide], the EC50 lay within 200 to 1000 nM.

Regarding `CC(=O)Nc1c[nH]c2ccc(CC(C)Oc3ccc(C(F)(F)F)cc3)cc12` (stereo not drawn) [Compound 287, N-(5-(2-(4-(trifluoromethyl)phenoxy)propyl)-1H-indol-3-yl)acetamide], the EC50 was 1000 to 5000 nM.

`CC(=O)Nc1c[nH]c2ccc(CCOC3CCN(CC(F)(F)F)CC3)cc12` [Compound 288, N-(5-(2-((1-(2,2,2-trifluoroethyl)piperidin-4-yl)oxy)ethyl)-1H-indol-3-yl)acetamide]: the EC50 lay in the range of 5000 to 100000 nM.

Turning to `CC(=O)Nc1c[nH]c2ccc(OCC3(c4ccc(C(F)(F)F)cc4)CC3)cc12` [Compound 289, N-(5-((1-(4-(trifluoromethyl)phenyl)cyclopropyl)methoxy)-1H-indol-3-yl)acetamide], the EC50 is 1000 to 5000 nM.

Consider `CCC(=O)Nc1c[nH]c2ccc(Cc3cc(C)ccc3O)cc12` [Compound 290, N-(5-(2-hydroxy-5-methylbenzyl)-1H-indol-3-yl)propionamide], for which the EC50 lay in the range of 5000 to 100000 nM.

In the case of `CCC(=O)Nc1c[nH]c2ccc(COc3ccc(C)cc3)cc12` [Compound 291, N-(5-((p-tolyloxy)methyl)-1H-indol-3-yl)propionamide], the EC50 was in the range of 200 to 1000 nM.

Turning to `CC(=O)Nc1c[nH]c2ccc(OCC[C@@H]3C[C@@H]4CN(C)C[C@@H]4C3)cc12` [Compound 292, N-(5-(2-((3aR,5r,6aS)-2-methyloctahydrocyclopenta[c]pyrrol-5-yl)ethoxy)-1H-indol-3-yl)acetamide], the EC50 was 5000 to 100000 nM.

Consider `CC(=O)Nc1c[nH]c2ccc(CCO[C@@H]3C[C@@H]4CN(CC(F)(F)F)C[C@@H]4C3)cc12` [Compound 293], for which the EC50 is 5000 to 100000 nM.

For the molecule `CC1(C(=O)Nc2c[nH]c3ccc(OCc4ccc(C(F)(F)F)cc4)cc23)CCC1` [Compound 294, 1-methyl-N-(5-((4-(trifluoromethyl)benzyl)oxy)-1H-indol-3-yl)cyclobutane-1-carboxamide], the EC50 fell in the range of 40 to 200 nM.

As to `CO[C@H]1C[C@H](C(=O)Nc2c[nH]c3ccc(O[C@H]4C[C@@H](c5ccc(C(F)(F)F)cc5)C4)cc23)C1` [Compound 295, trans-3-methoxy-N-(5-(cis-3-(4-(trifluoromethyl)phenyl)cyclobutoxy)-1H-indol-3-yl)cyclobutane-1-carboxamide], the EC50 lay in the range of 40 to 200 nM.

Take `CO[C@H]1C[C@H](C(=O)Nc2c[nH]c3ccc(OCC[C@@H]4C[C@@H]5CN(CC(F)(F)F)C[C@@H]5C4)cc23)C1` [Compound 296, trans-3-methoxy-N-(5-(2-((3aR,5r,6aS)-2-(2,2,2-trifluoroethyl)octahydrocyclopenta[c]pyrrol-5-yl)ethoxy)-1H-indol-3-yl)cyclobutane-1-carboxamide]: the EC50 was in the range of 40 to 200 nM.

Consider `COC1CC(C(=O)Nc2c[nH]c3ccc(CCOc4ccc(C(F)(F)F)cc4)cc23)C1` (stereo not drawn) [Compound 297, 3-methoxy-N-(5-(2-(4-(trifluoromethyl)phenoxy)ethyl)-1H-indol-3-yl)cyclobutane-1-carboxamide], for which the EC50 lay in the range of 200 to 1000 nM.

As for `COCCN1CC(C(=O)Nc2c[nH]c3ccc(OCCc4ccc(C(F)(F)F)cc4)cc23)C1` [Compound 298, 1-(2-methoxyethyl)-N-(5-(4-(trifluoromethyl)phenethoxy)-1H-indol-3-yl)azetidine-3-carboxamide], the EC50 lay within 200 to 1000 nM.

On to `O=C(Nc1c[nH]c2ccc(OCCc3ccc(C(F)(F)F)cc3)cc12)C1CN(CCC(F)(F)F)C1` [Compound 299, N-(5-(4-(trifluoromethyl)phenethoxy)-1H-indol-3-yl)-1-(3,3,3-trifluoropropyl)azetidine-3-carboxamide], for which the EC50 is 200 to 1000 nM.

In the case of `CO[C@H]1C[C@H](C(=O)Nc2c[nH]c3ccc(OCc4ccc(C(F)(F)F)cc4)cc23)C1` [Compound 300, trans-3-methoxy-N-(5-((4-(trifluoromethyl)benzyl)oxy)-1H-indol-3-yl)cyclobutane-1-carboxamide], the 50% effective concentration (EC50) lay in the range of 40 to 200 nM.

As for `CC1(C(=O)Nc2c[nH]c3ccc(OCc4ccc(C(F)(F)F)cc4)cc23)CC1` [Compound 301, 1-methyl-N-(5-((4-(trifluoromethyl)benzyl)oxy)-1H-indol-3-yl)cyclopropane-1-carboxamide], the EC50 fell in the range of 200 to 1000 nM.

As for `O=C(Nc1c[nH]c2ccc(O[C@H]3C[C@@H](c4ccc(C(F)(F)F)cc4)C3)cc12)C1(F)CC1` [Compound 302, 1-fluoro-N-(5-(cis-3-(4-(trifluoromethyl)phenyl)cyclobutoxy)-1H-indol-3-yl)cyclopropane-1-carboxamide], the EC50 was 200 to 1000 nM.

With `CN1CC(C(=O)Nc2c[nH]c3ccc(OCC[C@@H]4C[C@@H]5CN(CC(F)(F)F)C[C@@H]5C4)cc23)C1` [Compound 303, 1-methyl-N-(5-(2-((3aR,5r,6aS)-2-(2,2,2-trifluoroethyl)octahydrocyclopenta[c]pyrrol-5-yl)ethoxy)-1H-indol-3-yl)azetidine-3-carboxamide], the EC50 lay within 5000 to 100000 nM.

For the molecule `N#CC1CCC1C(=O)Nc1c[nH]c2ccc(OCC[C@@H]3C[C@@H]4CN(CC(F)(F)F)C[C@@H]4C3)cc12` (stereo partly drawn) [Compound 304, 2-cyano-N-(5-(2-((3aR,5r,6aS)-2-(2,2,2-trifluoroethyl)octahydrocyclopenta[c]pyrrol-5-yl)ethoxy)-1H-indol-3-yl)cyclobutane-1-carboxamide], the EC50 was 200 to 1000 nM.

Regarding `COCC1(C(=O)Nc2c[nH]c3ccc(OCC[C@@H]4C[C@@H]5CN(CC(F)(F)F)C[C@@H]5C4)cc23)CC1` [Compound 305, 1-(methoxymethyl)-N-(5-(2-((3aR,5r,6aS)-2-(2,2,2-trifluoroethyl)octahydrocyclopenta[c]pyrrol-5-yl)ethoxy)-1H-indol-3-yl)cyclopropane-1-carboxamide], the EC50 was in the range of 1000 to 5000 nM.

On to `CC1(C(=O)Nc2c[nH]c3ccc(OCC[C@@H]4C[C@@H]5CN(CC(F)(F)F)C[C@@H]5C4)cc23)CCOC1` (stereo partly drawn) [Compound 306, 3-methyl-N-(5-(2-((3aR,5r,6aS)-2-(2,2,2-trifluoroethyl)octahydrocyclopenta[c]pyrrol-5-yl)ethoxy)-1H-indol-3-yl)tetrahydrofuran-3-carboxamide], for which the EC50 was 200 to 1000 nM.

As for `O=C(Nc1c[nH]c2ccc(OCC[C@@H]3C[C@@H]4CN(CC(F)(F)F)C[C@@H]4C3)cc12)C1CC1(F)F` (stereo partly drawn) [Compound 307, 2,2-difluoro-N-(5-(2-((3aR,5r,6aS)-2-(2,2,2-trifluoroethyl)octahydrocyclopenta[c]pyrrol-5-yl)ethoxy)-1H-indol-3-yl)cyclopropane-1-carboxamide], the EC50 fell in the range of 200 to 1000 nM.

Take `O=C(Nc1c[nH]c2ccc(CCOc3ccc(C(F)(F)F)cc3)cc12)C1CC(CO)C1` (stereo not drawn) [Compound 308, 3-(hydroxymethyl)-N-(5-(2-(4-(trifluoromethyl)phenoxy)ethyl)-1H-indol-3-yl)cyclobutane-1-carboxamide]: the EC50 was in the range of 40 to 200 nM.

Regarding `CC1(C(=O)Nc2c[nH]c3ccc(CCOc4ccc(C(F)(F)F)cc4)cc23)CCC1` [Compound 309, 1-methyl-N-(5-(2-(4-(trifluoromethyl)phenoxy)ethyl)-1H-indol-3-yl)cyclobutane-1-carboxamide], the EC50 was in the range of 40 to 200 nM.

For `O=C(Nc1c[nH]c2ccc(CCOc3ccc(C(F)(F)F)cc3)cc12)C1CC(O)C1` (stereo not drawn) [Compound 310, 3-hydroxy-N-(5-(2-(4-(trifluoromethyl)phenoxy)ethyl)-1H-indol-3-yl)cyclobutane-1-carboxamide], the EC50 lay within 40 to 200 nM.

As to `CN1CC(C(=O)Nc2c[nH]c3ccc(OCCc4ccc(C(F)(F)F)cc4)cc23)C1` [Compound 311, 1-methyl-N-(5-(4-(trifluoromethyl)phenethoxy)-1H-indol-3-yl)azetidine-3-carboxamide], the EC50 lay in the range of 1000 to 5000 nM.

As to `O=C(Nc1c[nH]c2ccc(OCCc3ccc(C(F)(F)F)cc3)cc12)C1CC(CO)C1` (stereo not drawn) [Compound 312, 3-(hydroxymethyl)-N-(5-(4-(trifluoromethyl)phenethoxy)-1H-indol-3-yl)cyclobutane-1-carboxamide], the EC50 lay within 40 to 200 nM.

For the molecule `CC(=O)Nc1c[nH]c2ccc(OCC[C@@H]3C[C@@H]4CN(CC(F)F)C[C@@H]4C3)cc12` [Compound 313, N-(5-(2-((3aR,5r,6aS)-2-(2,2-difluoroethyl)octahydrocyclopenta[c]pyrrol-5-yl)ethoxy)-1H-indol-3-yl)acetamide], the EC50 lay in the range of 1000 to 5000 nM.
